Results reported in patent US7064207B2, “Androgen receptor antagonists” (Warner Lambert Company LLC, priority 2003, dated 2006).

Biological target: T1, androgen receptor (Homo sapiens, UniProt P10275)
T1 sequence (P10275 1-920 Q868H): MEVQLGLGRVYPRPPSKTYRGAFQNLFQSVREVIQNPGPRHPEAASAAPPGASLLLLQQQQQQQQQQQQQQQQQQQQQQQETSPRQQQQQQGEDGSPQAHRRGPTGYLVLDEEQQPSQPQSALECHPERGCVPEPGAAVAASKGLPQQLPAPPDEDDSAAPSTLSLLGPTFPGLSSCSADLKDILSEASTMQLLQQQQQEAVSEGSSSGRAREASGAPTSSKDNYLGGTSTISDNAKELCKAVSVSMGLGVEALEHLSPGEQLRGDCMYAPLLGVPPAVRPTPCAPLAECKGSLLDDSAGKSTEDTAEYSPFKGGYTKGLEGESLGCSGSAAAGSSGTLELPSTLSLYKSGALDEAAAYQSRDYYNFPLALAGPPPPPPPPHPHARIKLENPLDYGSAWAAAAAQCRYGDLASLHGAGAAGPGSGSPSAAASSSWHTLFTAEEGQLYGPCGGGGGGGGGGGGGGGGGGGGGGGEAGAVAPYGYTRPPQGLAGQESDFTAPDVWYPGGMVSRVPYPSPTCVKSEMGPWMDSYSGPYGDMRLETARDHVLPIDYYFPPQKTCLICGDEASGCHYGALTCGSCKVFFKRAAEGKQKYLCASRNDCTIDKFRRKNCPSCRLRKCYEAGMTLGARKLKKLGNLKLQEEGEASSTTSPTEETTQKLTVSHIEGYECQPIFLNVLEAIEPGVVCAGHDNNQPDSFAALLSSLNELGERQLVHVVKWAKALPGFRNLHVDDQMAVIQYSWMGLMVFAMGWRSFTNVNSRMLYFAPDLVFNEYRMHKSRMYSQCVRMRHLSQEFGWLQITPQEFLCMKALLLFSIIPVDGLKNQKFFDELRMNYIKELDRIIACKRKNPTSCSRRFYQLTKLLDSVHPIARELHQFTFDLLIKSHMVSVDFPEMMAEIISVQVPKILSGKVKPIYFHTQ
Test: AR Antagonist Cell Assay (MMTV-luciferase reporter, inhibition of DHT induction)
Assay type: cell-based
Details: MDA-MB453-MMTV clone 54-19 cells, 100 pM DHT, 17 hr, luciferase; read-out: Cell IC50
Description: The compounds ability to antagonize the effects of androgen on the androgen receptor were determined in the protocol described immediately below.
Experimental Procedure for AR Antagonist Cell Assay
Cell line: MDA-MB453-MMTV clone 54–19. This cell line is a stable transfected cell line with MDA-MB453 cell background (human breast tumor cell expressing high level of androgen receptor). A MMTV minimal promoter containing ARE was first cloned in front of a firefly luciferase reporter gene. Then the cascade was cloned into transfection vector pUV120puro. Electroporation method was used for transfecting MDA-MB-453 cell. Puromycin resistant stable cell line was selected. Cell Culture Media and Reagents:
Culture medium: DMEM (high glucose, Gibco cat #: 11960-044), 10% FBS, and 1% L-glutamine
Plating medium: DMEM (phenol red free), 10% charcoal treated HyClone serum, 1% L-glutamine
Assay medium: DMEM (phenol red free), 1% charcoal treated HyClone serum, 1% L-glutamine, and 1% penicillin/streptomycin
3× luciferase buffer: 2% beta-mercaptoethanol, 0.6% ATP, 0.0135% luciferine in cell lysis buffer
• 1. Cells are maintained in culture medium, splitting cells when they reach 80–90% confluence • 2. To test compounds, 10,000 cells/well are plated to opaque 96 cell culture plate in 100 ul/well plating medium, culture for overnight at 37° C. in cell culture incubator • 3. Carefully remove plating medium, then add 80 ul/well of pre-warmed assay medium, add 10 ul/well testing compound (final concentration at 10 uM or 1 uM), incubate at 37° C. for 30 minutes • 4. Add 10 ul/well freshly prepared DHT (final concentration at 100 pM) to each well, incubate at 37° C. for 17 hr (overnight) • 5. Add 50 ul/well 3× luciferase buffer, incubate at room temperature for 5 minutes, then count on Luminometer The fold induction over background by 100 pM DHT in the absence of testing compounds is standardized as 100% and experimental result is expressed as percentage of inhibition by testing compounds.

IC50 | SMILES
> 10000 nM | O=c1cc(C(F)(F)F)c2cc(S(=O)(=O)N3CCN(c4ccccc4)CC3)ccc2[nH]1 [Example 28, 6-(4-Phenylpiperazine-1-sulfonyl)-4-trifluoromethyl-1H-quinolin-2-one]
> 10000 nM | CCOC(=O)C1CCN(S(=O)(=O)c2ccc3c(c2)c(C(F)(F)F)cc(=O)n3C)CC1 [Example 3, 1-(1-Methyl-2-oxo-4-trifluoromethyl-1,2-dihydroquinoline-6-sulfonyl)piperidine-4-carboxylic acid ethyl ester]
> 10000 nM | Cn1c(=O)cc(C(F)(F)F)c2cc(S(=O)(=O)N3CCN(CCOCCO)CC3)ccc21 [Example 6, 6-{4-[2-(2-Hydroxyethoxy)-ethyl]piperazine-1-sulfonyl}-1-methyl-4-trifluoromethyl-1H-quinolin-2-one]
> 10000 nM | O=c1cc(C(F)(F)F)c2cc(S(=O)(=O)N3CCN(C4CCCC4)CC3)ccc2[nH]1 [Example 38, 6-(4-Cyclopentylpiperazine-1-sulfonyl)-4-trifluoromethyl-1H-quinolin-2-one]
3540 nM | O=c1cc(C(F)(F)F)c2cc(S(=O)(=O)N3CCCC(CO)C3)ccc2[nH]1 (stereo not drawn) [Example 25, 6-(3-Hydroxymethylpiperidine-1-sulfonyl)-4-trifluoromethyl-1H-quinolin-2-one]
310 nM | O=c1cc(C(F)(F)F)c2cc(S(=O)(=O)N3CCCC3)ccc2[nH]1 [Example 33, 6-(Pyrrolidine-1-sulfonyl)-4-trifluoromethyl-1H-quinolin-2-one]
160 nM | O=c1cc(C(F)(F)F)c2cc(S(=O)(=O)N3CCSC3)ccc2[nH]1 [Example 26, 6-(Thiazolidine-3-sulfonyl)-4-trifluoromethyl-1H-quinolin-2-one]
480 nM | COc1cc2c(cc1OC)CN(S(=O)(=O)c1ccc3[nH]c(=O)cc(C(F)(F)F)c3c1)CC2 [Example 21, 6-(6,7-Dimethoxy-3,4-dihydro-1H-isoquinoline-2-sulfonyl)-4-trifluoromethyl-1H-quinolin-2-one]
> 10000 nM | Cn1c(=O)cc(C(F)(F)F)c2cc(S(=O)(=O)N3CCSC3)ccc21 [Example 7, 1-Methyl-6-(thiazolidine-3-sulfonyl)-4-trifluoromethyl-1H-quinolin-2-one]
180 nM | O=c1cc(C(F)(F)F)c2cc(S(=O)(=O)N3CCCCCC3)ccc2[nH]1 [Example 36, 6-(Azepane-1-sulfonyl)-4-trifluoromethyl-1H-quinolin-2-one]
> 10000 nM | O=c1cc(C(F)(F)F)c2cc(S(=O)(=O)N3CCN(c4ccccn4)CC3)ccc2[nH]1 [Example 40, 6-(4-Pyridin-2-ylpiperazine-1-sulfonyl)-4-trifluoromethyl-1H-quinolin-2-one]
> 10000 nM | O=C(CN1CCN(S(=O)(=O)c2ccc3[nH]c(=O)cc(C(F)(F)F)c3c2)CC1)N1CCCC1 [Example 23, 6-[4-(2-Oxo-2-pyrrolidin-1-ylethyl)piperazine-1-sulfonyl]-4-trifluoromethyl-1H-quinolin-2-one]
640 nM | O=c1cc(C(F)(F)F)c2cc(S(=O)(=O)N3CCC(O)(c4cccs4)CC3)ccc2[nH]1 [Example 16, 6-(4-Hydroxy-4-thiophen-2-ylpiperidine-1-sulfonyl)-4-trifluoromethyl-1H-quinolin-2-one]
3600 nM | O=c1cc(C(F)(F)F)c2cc(S(=O)(=O)N3CCCC3CN3CCCC3)ccc2[nH]1 (stereo not drawn) [Example 41, 6-(2-Pyrrolidin-1-ylmethyl-pyrrolidine-1-sulfonyl)-4-trifluoromethyl-1H-quinolin-2-one]
> 10000 nM | Cn1c(=O)cc(C(F)(F)F)c2cc(S(=O)(=O)N3CCCc4ccccc43)ccc21 [Example 11, 6-(3,4-Dihydro-2H-quinoline-1-sulfonyl)-1-methyl-4-trifluoromethyl-1H-quinolin-2-one]
2240 nM | COC(=O)[C@@H]1CCCN1S(=O)(=O)c1ccc2[nH]c(=O)cc(C(F)(F)F)c2c1 [Example 19, 1-(2-Oxo-4-trifluoromethyl-1,2-dihydroquinoline-6-sulfonyl)pyrrolidine-2-carboxylic acid methylester]
> 10000 nM | Cn1c(=O)cc(C(F)(F)F)c2cc(S(=O)(=O)N3CCCC4CCCCC43)ccc21 (stereo not drawn) [Example 8, 1-Methyl-6-(octahydro-quinoline-1-sulfonyl)-4-trifluoromethyl-1H-quinolin-2-one]
2960 nM | O=c1cc(C(F)(F)F)c2cc(S(=O)(=O)N3CCN(Cc4ccco4)CC3)ccc2[nH]1 [Example 17, 6-(4-Furan-2-ylmethylpiperazine-1-sulfonyl)-4-trifluoromethyl-1H-quinolin-2-one]
440 nM | O=c1cc(C(F)(F)F)c2cc(S(=O)(=O)N3CCCC4CCCCC43)ccc2[nH]1 (stereo not drawn) [Example 31, 6-(Octahydroquinoline-1-sulfonyl)-4-trifluoromethyl-1H-quinolin-2-one]
1230 nM | O=c1cc(C(F)(F)F)c2cc(S(=O)(=O)N3CCCCCCC3)ccc2[nH]1 [Example 12, 6-(Azocane-1-sulfonyl)-4-trifluoromethyl-1H-quinolin-one]
> 10000 nM | Cn1c(=O)cc(C(F)(F)F)c2cc(S(=O)(=O)N3CCCCCC3)ccc21 [Example 9, 6-(Azepane-1-sulfonyl)-1-methyl-4-trifluoromethyl-1H-quinolin-2-one]
2660 nM | O=c1cc(C(F)(F)F)c2cc(S(=O)(=O)N3CCN(CCc4cccs4)CC3)ccc2[nH]1 [Example 32, 6-[4-(2-Thiophen-2-ylethyl)piperazine-1-sulfonyl]-4-trifluoromethyl-1H-quinolin-2-one]
1900 nM | O=c1cc(C(F)(F)F)c2cc(S(=O)(=O)N3CCC4(CC3)OCCO4)ccc2[nH]1 [Example 22, 6-(1,4-Dioxa-8-azaspiro[4.5]decane-8-sulfonyl)-4-trifluoromethyl-1H-quinolin-2-one]
> 10000 nM | O=c1cc(C(F)(F)F)c2cc(S(=O)(=O)N3CCCCC3CCO)ccc2[nH]1 (stereo not drawn) [Example 29, 6-[2-(2-Hydroxyethyl)-piperidine-1-sulfonyl]-4-trifluoromethyl-1H-quinolin-2-one]
> 10000 nM | CCN1CCN(S(=O)(=O)c2ccc3c(c2)c(C(F)(F)F)cc(=O)n3C)CC1 [Example 5, 6-(4-Ethylpiperazine-1-sulfonyl)-1-methyl-4-trifluoromethyl-1H-quinolin-2-one]
490 nM | O=c1cc(C(F)(F)F)c2cc(S(=O)(=O)N3Cc4ccccc4C3)ccc2[nH]1 [Example 18, 6-(1,3-Dihydroisoindole-2-sulfonyl)-4-trifluoromethyl-1H-quinolin-2-one]
> 10000 nM | O=c1cc(C(F)(F)F)c2cc(S(=O)(=O)N3CCN(CCOCCO)CC3)ccc2[nH]1 [Example 20, 6-{4-[2-(2-Hydroxyethoxy)-ethyl]piperazine-1-sulfonyl}-4-trifluoromethyl-1H-quinolin-2-one]

SMILES | IC50
CC1CCCCN1S(=O)(=O)c1ccc2[nH]c(=O)cc(C(F)(F)F)c2c1 (stereo not drawn) [Example 37, 6-(2-Methylpiperidine-1-sulfonyl)-4-trifluoromethyl-1H-quinolin-2-one] | 1550 nM
O=c1cc(C(F)(F)F)c2cc(S(=O)(=O)N3CCCC3CO)ccc2[nH]1 (stereo not drawn) [Example 30, 6-(2-Hydroxymethyl-pyrrolidine-1-sulfonyl)-4-trifluoromethyl-1H-quinolin-2-one] | 2170 nM
O=c1cc(C(F)(F)F)c2cc(S(=O)(=O)N3CCC3)ccc2[nH]1 [Example 39, 6-(Azetidine-1-sulfonyl)-4-trifluoromethyl-1H-quinolin-2-one] | 430 nM
